# Laboratory results reported in ChEMBL document CHEMBL4382202, “1-(2-Hydroxybenzoyl)-thiosemicarbazides are promising antimicrobial agents targeting d-alanine-d-alanine ligase in bacterio” (Eur J Med Chem, 2018).
# Active and inactive are the calls of the source. The rule behind the calls is not given here.
# Tests used:
# [1] = target: T1, D-alanine--D-alanine ligase (Enterococcus faecalis (strain ATCC 700802 / V583)) (UniProt Q47758); test: Inhibition of Enterococcus faecalis JH2-2 C-terminal 6His-tagged DdlB expressed in Escherichia coli LMG194 at 10 uM preincubated for 30 mins followed by substrate addition and measured after 20 mins by Biomol Green reagent assay relative to control
# T1 sequence (whole entry): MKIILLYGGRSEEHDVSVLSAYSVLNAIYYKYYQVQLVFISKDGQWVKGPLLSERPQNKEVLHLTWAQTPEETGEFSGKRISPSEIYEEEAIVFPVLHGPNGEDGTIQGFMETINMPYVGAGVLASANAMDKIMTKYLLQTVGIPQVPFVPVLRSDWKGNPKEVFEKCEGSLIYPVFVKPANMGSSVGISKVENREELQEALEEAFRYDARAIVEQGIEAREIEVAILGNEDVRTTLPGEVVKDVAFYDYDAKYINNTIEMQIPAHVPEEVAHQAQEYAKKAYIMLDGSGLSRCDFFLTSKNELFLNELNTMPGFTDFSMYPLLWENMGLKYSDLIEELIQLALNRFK
# [2] = target: T1, D-alanine--D-alanine ligase (Enterococcus faecalis (strain ATCC 700802 / V583)); test: Inhibition of Enterococcus faecalis JH2-2 C-terminal 6His-tagged DdlB expressed in Escherichia coli LMG194 assessed as residual activity at 10 uM preincubated for 30 mins followed by substrate addition and measured after 20 mins by Biomol Green reagent assay relative to control
# [3] = tested on: Pseudomonas aeruginosa; test: Antibacterial activity against Pseudomonas aeruginosa PAO1 after 18 to 24 hrs by microdilution assay; type: functional, organism-based
# [4] = tested on: Escherichia coli; test: Antibacterial activity against Escherichia coli ATCC 25922 after 18 to 24 hrs by microdilution assay; type: functional, organism-based
# [5] = tested on: Klebsiella pneumoniae; test: Antibacterial activity against Klebsiella pneumoniae ATCC 700603 after 18 to 24 hrs by microdilution assay; type: functional, organism-based
# [6] = target: T1, D-alanine--D-alanine ligase (Enterococcus faecalis (strain ATCC 700802 / V583)); test: Inhibition of Enterococcus faecalis JH2-2 C-terminal 6His-tagged DdlB expressed in Escherichia coli LMG194 at IC50 after 10 mins by Biomol Green reagent assay relative to control
# [7] = target: T1, D-alanine--D-alanine ligase (Enterococcus faecalis (strain ATCC 700802 / V583)); test: Inhibition of Enterococcus faecalis JH2-2 C-terminal 6His-tagged DdlB expressed in Escherichia coli LMG194 preincubated for 30 mins followed by substrate addition and measured after 20 mins in presence of 0.01% Triton X-100 by Biomol Green reagent assay
# [8] = target: T1, D-alanine--D-alanine ligase (Enterococcus faecalis (strain ATCC 700802 / V583)); test: Inhibition of Enterococcus faecalis JH2-2 C-terminal 6His-tagged DdlB expressed in Escherichia coli LMG194 at IC50 after 90 mins by Biomol Green reagent assay relative to control
Activity [2] [%],SMILES,inhibition [1] [%],further results
,O=C(NNC(=S)Nc1ccccc1F)c1ccccc1O,> 30,
,CC(=O)c1ccc(NC(=S)NNC(=O)c2ccccc2O)cc1,> 30,
100,O=C(NNC(=S)Nc1ccc(Cl)c(Cl)c1)c1ccc(F)cc1,,
,O=C(NNC(=S)Nc1ccc(Cl)cc1)c1ccccc1O,> 30,
,O=C(NNC(=S)Nc1cccc(I)c1)c1ccccc1O,> 30,
100,O=c1c2ccccc2ncn1NC(=S)Nc1ccccc1,,
,O=C(NNC(=S)Nc1cccc(Cl)c1)c1ccccc1O,> 30,MIC [3]: inactive; MIC [4]: inactive; MIC [5]: inactive
100,O=C(NNC(=S)Nc1ccc([N+](=O)[O-])cc1)c1ccc(O)cc1,,
,O=C(NNC(=S)Nc1ccc(Cl)c(Cl)c1)c1cc2ccccc2cc1O,> 30,
,COc1ccc(NC(=S)NNC(=O)c2ccccc2O)cc1,> 30,
100,O=C(NNC(=O)c1ccccc1)Nc1ccc(Cl)c(Cl)c1,,
,O=C(NNC(=S)Nc1ccccc1Cl)c1ccccc1O,> 30,MIC [3]: inactive; MIC [4]: inactive; MIC [5]: inactive
,O=C(NNC(=S)Nc1ccc(Cl)cc1Cl)c1ccccc1O,> 30,MIC [3]: inactive; MIC [4]: inactive; MIC [5]: inactive
,O=C(NNC(=S)Nc1ccc(Cl)c(Cl)c1)c1ccc(I)cc1O,> 30,
100,O=C(NNC(=S)Nc1ccc(Cl)cc1)c1ccccc1,,
,O=C(NNC(=S)NCCCN1CCOCC1)c1ccccc1O,30,
100,O=C(NNC(=S)Nc1ccccc1F)c1ccccc1,,
100,O=C(NNC(=S)Nc1ccccc1Cl)c1ccccc1,,
100,O=C(NNC(=S)Nc1ccc(Cl)c(Cl)c1)c1ccccc1F,,
,O=C(NNC(=S)Nc1cccc(F)c1)c1ccccc1O,> 30,

Activity [2] [%],SMILES,inhibition [1] [%],further results
,O=C(NNC(=S)Nc1ccc(F)cc1)c1ccccc1O,> 30,
,O=C(NNC(=S)Nc1ccccc1)c1ccccc1O,> 30,inhibition [6]: 60%; inhibition [7]: Active; inhibition [8]: > 90%
,COc1ccccc1NC(=S)NNC(=O)c1ccccc1O,> 30,
,CCCCCNC(=S)NNC(=O)c1ccccc1O,> 30,
100,O=C(NNC(=S)Nc1cccc(F)c1)c1ccccc1,,
100,O=C(NNC(=S)Nc1ccc(F)cc1)c1ccccc1,,
100,COc1ccccc1C(=O)NNC(=S)Nc1ccc(Cl)c(Cl)c1,,
,N#Cc1ccc(NC(=S)NNC(=O)c2ccccc2O)cc1,> 30,
,O=C(NNC(=S)Nc1ccc(OC(F)(F)F)cc1)c1ccccc1O,> 30,MIC [3]: inactive; MIC [4]: inactive; MIC [5]: inactive
100,O=C(NNC(=O)c1ccccc1O)Nc1ccc(Cl)c(Cl)c1,,
,O=C(NNC(=S)Nc1cccc2ccccc12)c1ccccc1O,> 30,
100,O=C(NNC(=S)Nc1ccc(Cl)c(Cl)c1)c1ccccc1,,
,N[C@@H]1CONC1=O,> 30,
,Nc1ccc(C(=O)NNC(=S)Nc2ccc(Cl)c(Cl)c2)c(O)c1,> 30,
100,O=C(NNC(=S)Nc1cccc(Cl)c1)c1ccccc1,,
,O=C(NNC(=S)Nc1ccc(OCc2ccccc2)cc1)c1ccccc1O,> 30,
,O=C(NNC(=S)Nc1cccnc1)c1ccccc1O,30,
100,O=C(NNC(=S)Nc1ccc(Cl)c(Cl)c1)c1cccc(O)c1,,
100,O=C(NNC(=S)Nc1ccc(Cl)c(Cl)c1)c1cccc(F)c1,,
100,O=C(NNC(=S)Nc1ccc(Cl)c(Cl)c1)c1ccc(O)cc1,,
